Measured values taken from ChEMBL document CHEMBL5344425, “Discovery of 5-(Pyrimidin-2-ylamino)-1H-indole-2-carboxamide Derivatives as Nur77 Modulators with Selective and Potent Activity Against Triple-Negative Breast Cancer” (J Med Chem, 2023).
Activity calls are given as the source filed them. The rule behind the calls is not given here.

What was measured:
T47D = experiment: Antiproliferative activity against human T47D cells assessed as inhibition of cell growth measured after 24 hrs by MTT assay; type: functional, cell-based
MDA-MB-231 = experiment: Antiproliferative activity against human MDA-MB-231 cells assessed as inhibition of cell growth measured after 24 hrs by MTT assay; type: functional, cell-based; conditions: MDA-MB-231, 24 h
[1] = Cytotoxicity against human MCF-10A cells assessed as inhibition of cell growth measured after 24 hrs by MTT assay; type: toxicity, cell-based
[2] = target: T1, Nuclear receptor subfamily 4immunitygroup A member 1 (Homo sapiens, UniProt P22736); experiment: Binding affinity to His-tagged Nur77 ligand binding domain (unknown origin) at 10 uM by surface plasmon resonance assay; conditions: filed as modulator
T1 sequence (P22736 whole entry, the tested form may be a part): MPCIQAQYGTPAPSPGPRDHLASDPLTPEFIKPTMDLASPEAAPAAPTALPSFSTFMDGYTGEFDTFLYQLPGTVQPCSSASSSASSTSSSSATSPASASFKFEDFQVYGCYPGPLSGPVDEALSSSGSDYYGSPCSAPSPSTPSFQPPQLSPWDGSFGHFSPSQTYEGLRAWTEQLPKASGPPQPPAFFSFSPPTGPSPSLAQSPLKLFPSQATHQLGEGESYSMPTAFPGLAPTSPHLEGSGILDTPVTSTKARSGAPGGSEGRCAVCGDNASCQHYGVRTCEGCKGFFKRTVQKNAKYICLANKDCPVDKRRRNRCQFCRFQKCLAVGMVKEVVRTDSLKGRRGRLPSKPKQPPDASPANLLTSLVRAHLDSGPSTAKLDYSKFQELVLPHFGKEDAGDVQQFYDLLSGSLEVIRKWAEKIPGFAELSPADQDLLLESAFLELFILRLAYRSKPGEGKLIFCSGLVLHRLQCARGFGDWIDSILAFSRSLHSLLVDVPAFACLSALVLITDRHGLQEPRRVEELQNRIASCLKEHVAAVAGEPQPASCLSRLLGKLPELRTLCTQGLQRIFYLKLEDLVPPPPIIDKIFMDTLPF

[3] = target: T1, Nuclear receptor subfamily 4immunitygroup A member 1; experiment: Binding affinity to His-tagged Nur77 ligand binding domain (unknown origin) by surface plasmon resonance assay
[4] = target: T1, Nuclear receptor subfamily 4immunitygroup A member 1; experiment: Antagonist activity at Nur77 ligand binding domain (unknown origin) transfected in HEK293T cells cotransfected with pG5-Luc assessed as inhibition of receptor transcriptional activity at 2 uM measured after 12 hrs by luciferase reporter gene assay; type: cell-based; conditions: filed as antagonist
[5] = Toxicity in Zebra fish AB embryo assessed as mortality rate at 1.25 to 5 uM measured after 24 hrs; design: species or system Danio rerio; conditions: zebrafish, dose 1.25-5 µM
[6] = Toxicity in Zebra fish AB embryo assessed as mortality rate at 1.25 uM measured after 24 to 72 hrs; design: species or system Danio rerio; conditions: AB, zebrafish, time 24-72 hrs

SMILES | IC50 (T47D) | IC50 (MDA-MB-231) | IC50 at 24 h [1] | Activity [2] | Kd [3] | inhibition [4] | mortality at 24 h, up to 5 µM [5] | mortality at 1.25 µM [6]
CCN(CC)CCCNC(=O)c1cc2cc(Nc3nccc(-c4cccnc4)n3)ccc2[nH]1 | > 20 µM | 10.5 µM | > 20 µM | – | – | – | – | –
CCN(CC)CCCNC(=O)c1cc2cc(Nc3nccc(-c4cccs4)n3)ccc2[nH]1 | 8.41 µM | 3.27 µM | 14.3 µM | Active | – | – | – | –
COc1ccc(-c2ccnc(Nc3ccc4[nH]c(C(=O)NCCCN(C)C)cc4c3)n2)cc1OC | 6.01 µM | 2.58 µM | 15 µM | Active | – | – | – | –
CC(C)N(CCNC(=O)c1cc2cc(Nc3nccc(-c4ccccc4)n3)ccc2[nH]1)C(C)C | 9.41 µM | 11.1 µM | 4.05 µM | – | – | – | – | –
CCN(CC)CCCNC(=O)c1cc2cc(Nc3nccc(-c4cccc(OCc5ccccc5)c4)n3)ccc2[nH]1 | > 20 µM | > 20 µM | > 20 µM | – | – | – | – | –
CCCCN(CCCC)CCCNC(=O)c1cc2cc(Nc3nccc(-c4ccccc4)n3)ccc2[nH]1 | 15.2 µM | 7.8 µM | 4.96 µM | – | – | – | – | –
CN(C)CCCNC(=O)c1cc2ccc(Nc3nccc(-c4cccnc4)n3)cc2[nH]1 | > 20 µM | 3.09 µM | > 20 µM | Active | 0.354 µM | – | – | –
COc1ccc(-c2ccnc(Nc3ccc4[nH]c(C(=O)NCCN5CCN(C)CC5)cc4c3)n2)cc1OC | 14.4 µM | 17.4 µM | > 20 µM | – | – | – | – | –
CCN(CC)CCCNC(=O)c1cc2cc(Nc3nccc(-c4ccccc4)n3)ccc2[nH]1 | 3.24 µM | 7.24 µM | 13 µM | Active | – | – | – | –
COc1ccccc1-c1ccnc(Nc2ccc3[nH]c(C(=O)NCCCN(C)C)cc3c2)n1 | > 20 µM | 4.79 µM | > 20 µM | – | – | – | – | –
O=C(NCCN1CCCCC1)c1cc2cc(Nc3nccc(-c4cccc(OCc5ccccc5)c4)n3)ccc2[nH]1 | > 20 µM | 5.41 µM | 1.76 µM | – | – | – | – | –
Cc1nc(-c2ccnc(Nc3ccc4[nH]c(C(=O)NCCN5CCCC5)cc4c3)n2)c(C)s1 | > 20 µM | > 20 µM | > 20 µM | – | – | – | – | –
CN(C)CCCNC(=O)c1cc2cc(Nc3nccc(-c4ccc(Cl)s4)n3)ccc2[nH]1 | 4.29 µM | 6.14 µM | 7.43 µM | Active | – | – | – | –
CN(C)CCNC(=O)c1cc2cc(Nc3nccc(-c4ccccc4)n3)ccc2[nH]1 | > 20 µM | 8.04 µM | > 20 µM | Active | – | – | – | –
CCN(CC)CCCNC(=O)c1cc2cc(Nc3nccc(-c4ccccc4OC)n3)ccc2[nH]1 | 13 µM | 8.32 µM | > 20 µM | Active | – | – | – | –
CN(C)CCCNC(=O)c1cc2cc(Nc3nccc(-c4ccc(C(F)(F)F)cc4)n3)ccc2[nH]1 | 9.23 µM | 0.91 µM | 2.09 µM | – | – | – | – | –
O=C(N/N=C/c1ccncc1)c1ccc(Nc2ccnc3ccccc23)cc1 | – | – | – | – | 1.17 µM | – | – | –
CCCCN(CCCC)CCCNC(=O)c1cc2cc(Nc3nccc(-c4cccnc4)n3)ccc2[nH]1 | 10.6 µM | 4.3 µM | 6.48 µM | Active | – | – | – | –

SMILES | IC50 (T47D) | IC50 (MDA-MB-231) | IC50 at 24 h [1] | Activity [2] | Kd [3] | inhibition [4] | mortality at 24 h, up to 5 µM [5] | mortality at 1.25 µM [6]
Cc1nc(-c2ccnc(Nc3ccc4[nH]c(C(=O)NCCCN(C)C)cc4c3)n2)c(C)s1 | 16 µM | > 20 µM | 15.9 µM | – | – | – | – | –
CCN(CC)CCCNC(=O)c1cc2cc(Nc3nccc(-c4nc(C)sc4C)n3)ccc2[nH]1 | > 20 µM | > 20 µM | 19.2 µM | Active | – | – | – | –
CCN(CC)CCCNC(=O)c1cc2cc(Nc3nccc(-c4ccc(Cl)s4)n3)ccc2[nH]1 | 2.3 µM | 6.7 µM | 5.54 µM | Active | – | – | – | –
CN(C)CCCNC(=O)c1cc2cc(Nc3nccc(-c4cccs4)n3)ccc2[nH]1 | 4.28 µM | > 20 µM | > 20 µM | Active | – | – | – | –
CN(C)CCCNC(=O)c1cc2cc(Nc3nccc(-c4cc(OCc5ccccc5)cc(OCc5ccccc5)c4)n3)ccc2[nH]1 | 11.4 µM | 1.69 µM | 3.9 µM | – | – | – | – | –
CCN(CC)CCCNC(=O)c1cc2cc(Nc3nccc(-c4ccc(C(F)(F)F)cc4)n3)ccc2[nH]1 | 6.19 µM | 6.52 µM | 6.57 µM | – | – | – | – | –
Cc1nc(-c2ccnc(Nc3ccc4[nH]c(C(=O)NCCN(C)C)cc4c3)n2)c(C)s1 | 3.65 µM | > 20 µM | 15 µM | Active | – | – | – | –
CN(C)CCNC(=O)c1cc2cc(Nc3nccc(-c4cccnc4)n3)ccc2[nH]1 | > 20 µM | 3.12 µM | > 20 µM | – | – | – | – | –
CC1=C(O)C(=O)C=C2C1=CC=C1[C@@]2(C)CC[C@@]2(C)[C@@H]3C[C@](C)(C(=O)O)CC[C@]3(C)CC[C@]12C [CELASTROL] | > 20 µM | – | 5.45 µM | Active | – | Active | 100% | 100%
Cc1nc(-c2ccnc(Nc3ccc4[nH]c(C(=O)NCCN5CCOCC5)cc4c3)n2)c(C)s1 | > 20 µM | > 20 µM | 15.4 µM | – | – | – | – | –
CN(C)CCCNC(=O)c1cc2cc(Nc3nccc(-c4ccccc4)n3)ccc2[nH]1 | 7.88 µM | 8.87 µM | > 20 µM | Active | – | – | – | –
CCN(CC)CCCNC(=O)c1cc2cc(Nc3nccc(-c4cc(OCc5ccccc5)cc(OCc5ccccc5)c4)n3)ccc2[nH]1 | 1.89 µM | > 20 µM | 2.89 µM | – | – | – | – | –
CN(C)CCNC(=O)c1cc2cc(Nc3nccc(-c4ccc(C(F)(F)F)cc4)n3)ccc2[nH]1 | 6.71 µM | 10.3 µM | 2.12 µM | – | – | – | – | –
CN(C)CCNC(=O)c1cc2cc(Nc3nccc(-c4cccc(OCc5ccccc5)c4)n3)ccc2[nH]1 | > 20 µM | > 20 µM | > 20 µM | – | – | – | – | –
COc1ccc2[nH]cc(CCNC(=O)c3cc4cc(Nc5nccc(-c6cccnc6)n5)ccc4[nH]3)c2c1 | 8.36 µM | 18.2 µM | > 20 µM | – | – | – | – | –
COc1ccc(-c2ccnc(Nc3ccc4[nH]c(C(=O)NCCN5CCCC5)cc4c3)n2)cc1OC | 3.26 µM | 4.02 µM | 9.71 µM | – | – | – | – | –
CCN(CC)CCCNC(=O)c1cc2cc(Nc3nccc(-c4ccc(OC)c(OC)c4)n3)ccc2[nH]1 | 11.4 µM | 5.98 µM | 3.57 µM | Active | – | – | – | –
CCCCCNC(=O)c1cc2cc(Nc3nccc(-c4ccccc4)n3)ccc2[nH]1 | > 20 µM | 17.3 µM | > 20 µM | Active | – | – | – | –
